Test results: patent US12686657B2, “Anti-inflammatory carboxamide derivatives” (BIOMEDCODE HELLAS SA, priority 2021, dated 2026)
Read-outs that look alike come from different tables or passages of the source.

Columns and labels:
Format in all cases: cell-based, mice
[1] = test system: SFs and PMCs; assay: Compound cytotoxicity, Crystal Violet assay
Method: The toxicity of the test compounds was assessed at several concentrations using the Crystal Violet assay on both SFs and PMCs. Adherent viable cells were Methanol fixed and stained with Crystal Violet. Optical density was quantified at […], as described in Feoktistova et al., 2016.

[2] = test system: hTNF-activated wt SFs; assay: CCL5 and CCL20 ELISA on hTNF-activated wild type synovial fibroblasts
Text: Primary SFs were derived from a) human TNF transgenic (hTNFTg) mice (Keffer et al., 1991) as well as from b) CBA/C57BL6 wild type mice.
By testing the compounds in a) and b) we accessed their effect on the activated SFs phenotype caused by both the endogenous hTNF upregulation and the exogenous hTNF administration. In this way it was confirm the ability of the compounds of the invention to act in the TNF pathway directly downstream of TNF.
(§1) SFs were isolated as previously described by Armaka et al., 2009, from the ankle joints of hTNFtg or CBA/C57BL6 wild type (wt) littermates. Briefly, ankle joints were digested with Collagenase IV (Sigma Aldrich, C5138) for 45 minutes at a 37° C. shaking waterbath and after 5 days in culture at 37° C. and 5% CO2, a depletion of CD45+ lineage cells was performed using a Biotin anti-mouse CD45 Antibody (Biolegend, 103104) and Dynabeads™ Biotin Binder (ThermoFisher 11047), according to the manufacturer's protocol. After 10 days in culture, SFs were seeded overnight (O/N) at a concentration of 2×10^4 cells/well in a 96 well plate in 1×DMEM, supplemented with 100 U/ml Penicillin Streptomycin (P/S) and 10% Fetal Bovine Serum (FBS). The next day the cells were synchronized by starvation that included their O/N plating in low serum medium (0.5% FBS). Following the O/N starvation, the hTNFg and the WT SFs were treated with different concentrations of the experimental compounds. The SFs were at the same time activated with 10 ng/ml hTNF (Peprotech, 300-01A). 48 h following the treatment the cell culture supernatants were collected and analyzed by ELISA (R&S Systems, Duoset, DY478 and DY760) according to the manufacturer's protocol, for the detection of CCL5/Rantes and CCL20/Mip3, two known inflammatory chemokines. The IC50 values were determined as the concentration of the compounds required to reduce the levels of secreted CCL5 and CCL20 by 50%.
In order to determine the efficiency of the compounds of the invention, the same protocol was repeated with some minor modifications. Mainly, the concentration of hTNF was 10-fold reduced, i.e., adjusted to 1 ng/ml, and the SFs were seeded overnight at a concentration of 10^4 cells/well.
Table 7 summarizes the reduction of CCL5 and CCL20 levels achieved with the test compounds of the invention. Data are presented as percentages of the chemokine levels detected in treated cells compared to 100% levels of the chemokines detected in the untreated cells.
Table 8 summarizes the values of IC50 and toxicity for the test compounds of the invention. Dose response curves regarding the WT SFs were produced with 10 ng/ml hTNF stimulation for all compounds, with the exception of the compounds E and F, where WT cells were induced using hTNF at 1 ng/ml: […]

[3] = test system: hTNFtg SFs; assay: Legendplex pro-inflammatory chemokine panel on hTNFTg synovial fibroblasts
Method: as §1
(§2) The supernatants of the SFs were also analyzed using the Mouse pro-inflammatory chemokine panel from Legendplex™ (Biolegend, 740007), according to manufacturer's instructions, for the simultaneous detection of 13 Mouse chemokines.
(§3) The anti-inflammatory potential of the test compounds 51, 52, 53, E and F on SFs was also assessed using the Mouse pro-inflammatory chemokine panel from Legendplex that allows the simultaneous detection of 13 Mouse chemokines. The effect of compound 51 on SFs was assessed at a dose of 25 μM, while the effect of the test compounds 52, 53, E and F was assessed at a dose of 10 μM. Numbers represent percentages of the chemokine levels secreted from the treated SFs compared to 100% levels of the chemokines detected in the untreated cells (i.e. either hTNFTg SFs or hTNF-activated wt SFs).
(§4) Table 9 summarizes the effect of the test compounds 51, 52 and 53, E and F on the inflammatory chemokines secreted from activated SFs. WT SFs were stimulated with 10 ng/ml hTNF.

[4] = test system: hTNF-activated wt SFs; assay: Legendplex pro-inflammatory chemokine panel on hTNF-activated wt synovial fibroblasts; conditions: 10 ng/ml hTNF
Method: as §1, §2, §3, §4

[5] = 1 ng/mL hTNF, compound 10 μM, 48 h
[6] = 1 ng/mL hTNF, compound 25 μM, 48 h
[7] = 10 ng/mL hTNF, compound 10 μM, 48 h
[8] = 10 ng/mL hTNF, compound 25 μM, 48 h
[9] = Mus musculus, Fibroblast, hTNF at 1 ng/ml, read-out: IC50 (μM) CCL5 WT
[10] = Mus musculus, Fibroblast, hTNF at 1 ng/ml, read-out: IC50 (μM) CCL20 WT
[11] = 1 ng/mL hTNF, compound 50 μM, 48 h
[12] = 10 ng/mL hTNF, compound 50 μM, 48 h
[13] = Mus musculus, Fibroblast, 10 ng/ml hTNF stimulation, read-out: IC50 (μM) CCL5 WT
[14] = Mus musculus, Fibroblast, 10 ng/ml hTNF stimulation, read-out: IC50 (μM) CCL20 WT

## COc1cc(N)c(Cl)cc1C(=O)NCC1(Nc2cccc(OC(F)(F)F)c2)CCCCCC1 [F, 4-amino-5-chloro-2-methoxy-N-((1-((3-(trifluoromethoxy)phenyl)amino)cycloheptyl)methyl)benzamide]
[1]
  Cell Toxicity: >25 µM
[2]; [5]
  CCL5 WT, percentage of level in untreated cells: 0%
[2]; [6]
  CCL5 WT, percentage of level in untreated cells: 0%
  CCL20 WT, percentage of level in untreated cells: 7%
[2]; [7]
  CCL5 WT, percentage of level in untreated cells: 12%
[2]; [8]
  CCL5 WT, percentage of level in untreated cells: 9%
  CCL20 WT, percentage of level in untreated cells: 10%
[2]; [9]
  IC50: 0.09 µM
[2]; [10]
  IC50: 0.129 µM
[3]; compound 10 μM
  EOTAXIN hTNFTg, percentage of level in untreated cells: 0%
  KC hTNFTg, percentage of level in untreated cells: 35%
  LIX hTNFTg, percentage of level in untreated cells: 1%
  MCP1 hTNFTg, percentage of level in untreated cells: 13.5%
  MIP1β hTNFTg, percentage of level in untreated cells: 12.5%

## COc1cc(N)c(Cl)cc1C(=O)NCC1(Nc2ccc(F)cc2Cl)CCCCCC1 [E, 4-amino-5-chloro-N-((1-((2-chloro-4-fluorophenyl)amino)cycloheptyl)methyl)-2-methoxybenzamide]
[1]
  Cell Toxicity: >150 µM
[2]; [5]
  CCL5 WT, percentage of level in untreated cells: 0%
  CCL20 WT, percentage of level in untreated cells: 2%
[2]; [6]
  CCL5 WT, percentage of level in untreated cells: 0%
  CCL20 WT, percentage of level in untreated cells: 3%
[2]; [7]
  CCL5 WT, percentage of level in untreated cells: 13%
  CCL20 WT, percentage of level in untreated cells: 5%
[2]; [8]
  CCL5 WT, percentage of level in untreated cells: 11%
  CCL20 WT, percentage of level in untreated cells: 2%
[2]; [9]
  IC50: 0.59 µM
[2]; [10]
  IC50: 0.167 µM
[3]; compound 10 μM
  EOTAXIN hTNFTg, percentage of level in untreated cells: 2.5%
  KC hTNFTg, percentage of level in untreated cells: 32%
  LIX hTNFTg, percentage of level in untreated cells: 19.5%
  MCP1 hTNFTg, percentage of level in untreated cells: 25.5%
  MIP1β hTNFTg, percentage of level in untreated cells: 24%

## COc1cc(N)c(Cl)cc1C(=O)NCC1(Nc2ccc(Cl)cc2)CCCCCC1 [Compound 53, 4-amino-5-chloro-N-((1-((4-chlorophenyl)amino)cycloheptyl)methyl)-2-methoxybenzamide]
[1]
  Cell Toxicity: >100 µM
[2]; [5]
  CCL5 WT, percentage of level in untreated cells: 16%
  CCL20 WT, percentage of level in untreated cells: 26%
[2]; [11]
  CCL5 WT, percentage of level in untreated cells: 8%
  CCL20 WT, percentage of level in untreated cells: 9%
[2]; [7]
  CCL5 WT, percentage of level in untreated cells: 35%
  CCL20 WT, percentage of level in untreated cells: 15%
[2]; [12]
  CCL5 WT, percentage of level in untreated cells: 26%
  CCL20 WT, percentage of level in untreated cells: 8%
[2]; [13]
  IC50: 2.9 µM
[2]; [14]
  IC50: 2.3 µM
[3]; compound 10 μM
  EOTAXIN hTNFTg, percentage of level in untreated cells: 9%
  KC hTNFTg, percentage of level in untreated cells: 49%
  LIX hTNFTg, percentage of level in untreated cells: 40%
  MCP1 hTNFTg, percentage of level in untreated cells: 49.5%
  MIP1β hTNFTg, percentage of level in untreated cells: 33%
[4]; compound 10 μM
  EOTAXIN WT, percentage of level in untreated cells: 59%
  KC WT, percentage of level in untreated cells: 68%
  LIX WT, percentage of level in untreated cells: 24%
  MCP1 WT, percentage of level in untreated cells: 57%

## COc1cc(N)c(Cl)cc1C(=O)NCC1(c2ccc(Cl)cc2)CCCCCC1 [Compound 52, 4-amino-5-chloro-N-((1-(4-chlorophenyl)cycloheptyl)methyl)-2-methoxybenzamide]
[1]
  Cell Toxicity: >200 µM
[2]; [5]
  CCL5 WT, percentage of level in untreated cells: 48%
  CCL20 WT, percentage of level in untreated cells: 45%
[2]; [11]
  CCL5 WT, percentage of level in untreated cells: 22%
[2]; [7]
  CCL5 WT, percentage of level in untreated cells: 27%
  CCL20 WT, percentage of level in untreated cells: 15%
[2]; [12]
  CCL5 WT, percentage of level in untreated cells: 14%
[2]; Mus musculus, Fibroblast, 48 h, 1 ng/mL hTNF, compound 50 μM, 48 h, read-out: CCL20 WT, percentage of level in untreated cells
  activity at 50 µM: 17%
[2]; [13]
  IC50: 1.4 µM
[2]; [14]
  IC50: 1.5 µM
[3]; compound 10 μM
  EOTAXIN hTNFTg, percentage of level in untreated cells: 6%
  KC hTNFTg, percentage of level in untreated cells: 49%
  LIX hTNFTg, percentage of level in untreated cells: 48%
  MCP1 hTNFTg, percentage of level in untreated cells: 55%
[4]; compound 10 μM
  EOTAXIN WT, percentage of level in untreated cells: 26%
  KC WT, percentage of level in untreated cells: 34%
  LIX WT, percentage of level in untreated cells: 23%
  MCP1 WT, percentage of level in untreated cells: 40%

## COc1cc(N)c(Cl)cc1C(=O)NCC1(c2ccc(Cl)cc2)CCCCC1 [Compound 51, 4-amino-5-chloro-N-((1-(4-chlorophenyl)cyclohexyl)methyl)-2-methoxybenzamide]
[1]
  Cell Toxicity: >100 µM
[2]; [5]
  CCL5 WT, percentage of level in untreated cells: 54%
  CCL20 WT, percentage of level in untreated cells: 63%
[2]; [11]
  CCL5 WT, percentage of level in untreated cells: 20%
  CCL20 WT, percentage of level in untreated cells: 35%
[2]; [7]
  CCL5 WT, percentage of level in untreated cells: 67%
  CCL20 WT, percentage of level in untreated cells: 14%
[2]; [12]
  CCL5 WT, percentage of level in untreated cells: 39%
  CCL20 WT, percentage of level in untreated cells: 5%
[2]; [13]
  IC50: 10.4 µM
[2]; [14]
  IC50: 3 µM
[3]; compound 25 μM
  EOTAXIN hTNFTg, percentage of level in untreated cells: 24%
  KC hTNFTg, percentage of level in untreated cells: 80%
  LIX hTNFTg, percentage of level in untreated cells: 22%
  MCP1 hTNFTg, percentage of level in untreated cells: 89%
[4]; compound 25 μM
  EOTAXIN WT, percentage of level in untreated cells: 7%
  KC WT, percentage of level in untreated cells: 41%
  LIX WT, percentage of level in untreated cells: 3%
  MCP1 WT, percentage of level in untreated cells: 59%
